According to patent US10047049B2, “Process for preparing pridopidine” (priority 2015, dated 2018):
≈ marks a conversion by molar mass, not a printed value.

How the values were obtained:
[1] = assay type: physicochemical
Excerpt: The purity profile of the isolated Compound 9 was better when performing the crystallization from water (Batch 2602 and Batch 2603; both had purities over 99.5%) compared to both crystallization from water/MTBE mixture (purity of 98.5%) and pure MTBE (Batch 2601; purity was 98.5%). The major improvement is removal of early eluting/polar impurities. The yield of the present method may be slightly lower because there will be a small loss of material in the mother liquor. Estimated solubility of Compound 9 in the mother liquor at 5-20° C. is 0.8-0.9% (Batch 2602 and Batch 2603). In the current method this would correspond to 4-5% of the material being lost. This is considered an acceptable loss because of the improved purity of Compound 9.

[2] = cited from earlier work

CCCN1CCC(O)(c2cccc(SC)c2)CC1 [Compound 9, 4-(3-(methylthio)phenyl)-1-propylpiperidin-4-ol]
Estimated solubility in the mother liquor [1]: 0.8-0.9%

CSc1ccccc1 [TA, thioanisole]
solubility (water) [2]: 500 µg/mL (≈ 4.03 mM)

CCCCCCBr [hexyl bromide]
solubility in water [2]: insoluble in water
